Legend:
downy brome = assay: Test C pre-/postemergence test; format: in vivo, Bromus tectorum; conditions: Postemergence; for Plant response rating, Bromegrass, Downy: scale 0 to 100, 0 no effect, 100 complete control
Outline: (§1)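 Compounds in a non-phytotoxic solvent with surfactant applied preemergence to seeded pots and, at the same time, postemergence to plants 2–18 cm tall (1- to 4-leaf stage). Paddy tests: pots flooded to 3 cm, compound applied into the water, depth held throughout.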

rice = assay: Test C flooded paddy test; format: in vivo, Oryza sativa; conditions: Flood
Outline: (§2)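 Pots were flooded to 3 cm above the soil surface at treatment, compound applied directly to the paddy water, and that depth held throughout. Plants were kept in a greenhouse for 13 to 15 days, then visually rated against untreated controls.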

soybean = assay: Test C pre-/postemergence test; format: in vivo, Glycine max; conditions: Postemergence; for Plant response rating, Soybean: scale 0 to 100, 0 no effect, 100 complete control
Outline: as §1

wheat = assay: Test A pre-/postemergence greenhouse test; format: in vivo, Triticum aestivum; conditions: for Plant response rating, Wheat: 0 to 100 scale where 0 is no effect and 100 is complete control; for Wheat plant response rating: 0 to 100 scale
Outline: (§3)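 Two application timings were run side by side in the greenhouse. Before emergence, compound went onto the soil surface of loam–sand pots as a directed spray; after emergence, plants at 2–10 cm and the one- to two-leaf stage were treated. Visual injury versus controls was rated at approximately day ten.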

lambsquarters = assay: Test C pre-/postemergence test; format: in vivo, Chenopodium album; conditions: Postemergence; for Plant response rating, Lambsquarters: scale 0 to 100, 0 no effect, 100 complete control
Outline: as §1

bermudagrass = assay: Test C pre-/postemergence test; format: in vivo, Cynodon dactylon; conditions: Postemergence; for Plant response rating, Bermudagrass: scale 0 to 100, 0 no effect, 100 complete control
Outline: as §1

crabgrass = assay: Test C pre-/postemergence test; format: in vivo, Digitaria sanguinalis; conditions: Postemergence; for Plant response rating, Crabgrass, Large: scale 0 to 100, 0 no effect, 100 complete control
Outline: as §1

velvetleaf = assay: Test A pre-/postemergence greenhouse test; format: in vivo, Abutilon theophrasti; conditions: for Plant response rating, Velvetleaf: 0 to 100 scale where 0 is no effect and 100 is complete control; for Velvetleaf plant response rating: 0 to 100 scale
Outline: as §3

barnyardgrass = assay: Test C flooded paddy test; format: in vivo, Echinochloa crus-galli; conditions: Flood
Outline: as §2

corn = assay: Test A pre-/postemergence greenhouse test; format: in vivo, Zea mays; conditions: for Plant response rating, Corn: 0 to 100 scale where 0 is no effect and 100 is complete control; for Corn plant response rating: 0 to 100 scale
Outline: as §3

giant foxtail [1] = assay: Test A pre-/postemergence greenhouse test; format: in vivo, Setaria faberi; conditions: for Plant response rating, Foxtail, Giant: 0 to 100 scale where 0 is no effect and 100 is complete control; for Foxtail, Giant plant response rating: 0 to 100 scale
Outline: as §3

morningglory = assay: Test C pre-/postemergence test; format: in vivo, Ipomoea coccinea; conditions: Postemergence; for Plant response rating, Morningglory: scale 0 to 100, 0 no effect, 100 complete control
Outline: as §1

pigweed = assay: Test C pre-/postemergence test; format: in vivo, Amaranthus retroflexus; conditions: Postemergence; for Plant response rating, Pigweed: scale 0 to 100, 0 no effect, 100 complete control
Outline: as §1

johnsongrass = assay: Test C pre-/postemergence test; format: in vivo, Sorghum halepense; conditions: Postemergence; for Plant response rating, Johnsongrass: scale 0 to 100, 0 no effect, 100 complete control
Outline: as §1

giant foxtail [2] = assay: Test C pre-/postemergence test; format: in vivo, Setaria faberii; conditions: Postemergence; for Plant response rating, Foxtail, Giant: scale 0 to 100, 0 no effect, 100 complete control
Outline: as §1

Surinam grass = assay: Test C pre-/postemergence test; format: in vivo, Brachiaria decumbens; conditions: Postemergence; for Plant response rating, Surinam Grass: scale 0 to 100, 0 no effect, 100 complete control
Outline: as §1

[3] = 62 g ai/ha, scale 0 to 100 (0 no effect, 100 complete control)
[4] = 250 g ai/ha, scale 0 to 100, 0 no effect, 100 complete control, 13 to 15 days
[5] = Postemergence, 500 g ai/ha, 0 is no effect, 100 is complete control
[6] = Preemergence, 125 g ai/ha, 0 no effect, 100 complete control

For `CCn1nc(C(F)(F)F)c(C(C)S(=O)(=O)c2cccc[n+]2[O-])c1OCC(F)(F)F` (stereo not drawn) [Compound 69], the “Plant response rating (0 to 100), Bromegrass, Downy” value (downy brome; 31 g ai/ha) was 0, the “Plant response rating, Bromegrass, Downy” value (downy brome; 62 g ai/ha) was 0 and the “Plant response rating, Bromegrass, Downy” value (downy brome; 125 g ai/ha) was 10. For the same compound, the “Plant response rating, Bromegrass, Downy” value (downy brome; 250 g ai/ha) was 45, the “Plant response rating, Rice” value (rice; [3]) was 40 and the “Plant response rating, Rice” value (rice; [4]) was 70. For the same compound, the “Plant response rating (0 to 100), Soybean” value (soybean; 31 g ai/ha) was 0, the “Plant response rating (0 to 100), Soybean” value (soybean; 62 g ai/ha) was 30 and the “Plant response rating, Soybean” value (soybean; 125 g ai/ha) was 30. The “Plant response rating, Soybean” value (soybean; 250 g ai/ha) was 35, the “Plant response rating, Wheat” value (wheat; Postemergence, 125 g ai/ha) was 50 and the “Wheat plant response rating” value (wheat; [5]) was 60. For the same compound, the “Wheat plant response rating” value (wheat; [6]) was 50, the “Plant response rating, Wheat” value (wheat; Preemergence, 500 g ai/ha) was 90 and the “Plant response rating (0 to 100), Lambsquarters” value (lambsquarters; 31 g ai/ha) was 0. For the same compound, the “Plant response rating, Lambsquarters” value (lambsquarters; 62 g ai/ha) was 0, the “Plant response rating, Lambsquarters” value (lambsquarters; 125 g ai/ha) was 0 and the “Plant response rating, Lambsquarters” value (lambsquarters; 250 g ai/ha) was 0. The “Plant response rating (0 to 100), Bermudagrass” value (bermudagrass; 31 g ai/ha) was 0, the “Plant response rating, Bermudagrass” value (bermudagrass; 62 g ai/ha) was 0 and the “Plant response rating, Bermudagrass” value (bermudagrass; 125 g ai/ha) was 0. The “Plant response rating, Bermudagrass” value (bermudagrass; 250 g ai/ha) was 50, the “Plant response rating (0 to 100), Crabgrass, Large” value (crabgrass; 31 g ai/ha) was 0 and the “Plant response rating, Crabgrass, Large” value (crabgrass; 62 g ai/ha) was 0. For the same compound, the “Plant response rating, Crabgrass, Large” value (crabgrass; 125 g ai/ha) was 0, the “Plant response rating, Crabgrass, Large” value (crabgrass; 250 g ai/ha) was 0 and the “Plant response rating, Velvetleaf” value (velvetleaf; Postemergence, 125 g ai/ha) was 50. The “Velvetleaf plant response rating” value (velvetleaf; [5]) was 80, the “Velvetleaf plant response rating” value (velvetleaf; [6]) was 10 and the “Plant response rating, Velvetleaf” value (velvetleaf; Preemergence, 500 g ai/ha) was 100. For the same compound, the “Plant response rating, Barnyardgrass” value (barnyardgrass; [3]) was 0, the “Plant response rating, Barnyardgrass” value (barnyardgrass; [4]) was 75 and the “Plant response rating, Corn” value (corn; Postemergence, 125 g ai/ha) was 60. For the same compound, the “Corn plant response rating” value (corn; [5]) was 80, the “Corn plant response rating” value (corn; [6]) was 0 and the “Plant response rating, Corn” value (corn; Preemergence, 500 g ai/ha) was 80. For the same compound, the “Plant response rating, Foxtail, Giant” value (giant foxtail [1]; Postemergence, 125 g ai/ha) was 80, the “Foxtail, Giant plant response rating” value (giant foxtail [1]; [5]) was 100 and the “Foxtail, Giant plant response rating” value (giant foxtail [1]; [6]) was 100. The “Plant response rating, Foxtail, Giant” value (giant foxtail [1]; Preemergence, 500 g ai/ha) was 100, the “Plant response rating (0 to 100), Morningglory” value (morningglory; 31 g ai/ha) was 0 and the “Plant response rating, Morningglory” value (morningglory; 62 g ai/ha) was 0. For the same compound, the “Plant response rating, Morningglory” value (morningglory; 125 g ai/ha) was 0, the “Plant response rating, Morningglory” value (morningglory; 250 g ai/ha) was 0 and the “Plant response rating (0 to 100), Pigweed” value (pigweed; 31 g ai/ha) was 0. For the same compound, the “Plant response rating (0 to 100), Pigweed” value (pigweed; 62 g ai/ha) was 0, the “Plant response rating, Pigweed” value (pigweed; 125 g ai/ha) was 0 and the “Plant response rating, Pigweed” value (pigweed; 250 g ai/ha) was 0. For the same compound, the “Plant response rating (0 to 100), Johnsongrass” value (johnsongrass; 31 g ai/ha) was 0, the “Plant response rating, Johnsongrass” value (johnsongrass; 62 g ai/ha) was 0 and the “Plant response rating, Johnsongrass” value (johnsongrass; 125 g ai/ha) was 20. For the same compound, the “Plant response rating, Johnsongrass” value (johnsongrass; 250 g ai/ha) was 40, the “Plant response rating (0 to 100), Foxtail, Giant” value (giant foxtail [2]; 31 g ai/ha) was 0 and the “Plant response rating, Foxtail, Giant” value (giant foxtail [2]; 62 g ai/ha) was 0. The “Plant response rating, Foxtail, Giant” value (giant foxtail [2]; 125 g ai/ha) was 0, the “Plant response rating, Foxtail, Giant” value (giant foxtail [2]; 250 g ai/ha) was 60 and the “Plant response rating (0 to 100), Surinam Grass” value (Surinam grass; 31 g ai/ha) was 0. For the same compound, the “Plant response rating (0 to 100), Surinam Grass” value (Surinam grass; 62 g ai/ha) was 0, the “Plant response rating, Surinam Grass” value (Surinam grass; 125 g ai/ha) was 0 and the “Plant response rating, Surinam Grass” value (Surinam grass; 250 g ai/ha) was 0.
